According to patent publication US9757361B2, “Treatment of psoriasis and of other skin disorders associated with inhibition of differentiation of epidermal cells” (priority 2001, dated 2017):
Entries after “also recorded” stand apart in the source; their conditions may differ.

Key:
[1] = tested on: CD44; assay: Immunohistochemical staining for the CD44 antigen; type: in vivo, human; conditions: lesional skin, 24th hour of treatment
Description: What might be the key/proximal pathogenic event(s) intervened by cyclopamine? […] Both FIG. 4G and a closer-up view on FIG. 4H show decreased CD44 expression in the suprabasal and spinous layers in lesional epidermis in comparison to the situation in non-lesional epidermis.

[2] = Follow-up of healthy / non-lesional skin after topical cyclopamine for adverse effects; conditions: for adverse effect of topical application on healthy / non-lesional skin: described concentration and dosing conditions
[3] = tested on: CD4 positive lymphocytes; assay: Immunohistochemical staining for the CD4 antigen in lesional skin; type: in vivo, human; conditions: treated half of lesion, 24th hour
Description: (§1) All reaction conditions were as recommended by the manufacturer.
Moreover, conversion of the CD4(−) and CD8(−) lymphocytes to the CD4(+) and CD8(+) lymphocytes is viewed widely in the prior art as a requirement for their psoriatic plaque causing action [reviewed in Krueger J G (2002) Journal of the American Academy of Dermatology 46:1-23].

[4] = tested on: epithelial antigen (Ber-EP4); assay: Immunohistochemical staining for the epithelial antigen with the Ber-EP4 antibody; type: in vivo, human; conditions: 24th hour
Description: as §1
The monoclonal antibody Ber-EP4 is known to label the basal layer cells in normal epidermis. The outer root sheath of hair follicles, where the hair stem cells are thought to reside, are also known to be labeled with Ber-EP4.

[5] = tested on: EGFR; assay: Immunohistochemical staining for EGFR; type: in vivo, human; conditions: lesional skin treated with cyclopamine cream for 24 hours
Description: Epidermal growth factor receptor (EGFR) is another marker known to display downregulation of expression with the differentiation of epidermal keratinocytes. […] Ordinarily EGFR expression is not detected immunohistochemically in the suprabasal layers of normal epidermis and the return of EGFR expression to the basal layer of epidermis is regarded to be one of the first signs of effective treatment of psoriasis by various modalities [King L E Jr. et al (1990) Journal of Investigative Dermatology 95: 10S-12S]. We evaluated the EGFR expression with anti-human EGFR antibody EGFR 113 (Novocastra Lab. Ltd., U.K.) and with immunohistochemical staining with peroxidase.

[6] = tested on: cytokeratin 15; assay: Immunohistochemical staining with the C8/144B antibody (cytokeratin 15); conditions: 24th hour
Description: (§2) All antibodies and reagents for these immunohistochemical investigations were purchased from DAKO (Glostrup, Denmark); human Ki-67 antigen was detected by the monoclonal antibody M7187, human epithelial antigen was detected by the monoclonal antibody Ber-EP4, human CD4 antigen was detected by the monoclonal antibody M0716, human CD8 antigen was detected by the monoclonal antibody C8/144B. Besides the CD8 antigen, the monoclonal antibody C8/144B is known to recognize and bind to the cytokeratin 15 expressed by the hair stem cells (Kanitakis J. et al. (1999) Eur. J. Dermatol. 9:363-365). A DAKO “universal visualization kit” (LSAB2) employing biotinylated secondary antibody and peroxidase-conjugated streptavidin (pre-diluted to match the dilutions of DAKO-supplied primary antibodies) was used for the visualization reactions. All reaction conditions were as recommended by the manufacturer.

[7] = tested on: basal cell carcinoma cells; conditions: found earlier, PCT/TR 01/00027; cited from earlier work
[8] = tested on: Ki-67 antigen; conditions: treated lesional skin, 24th hour
Description: as §2
The Ki-67 antigen is a marker of the proliferating cells.

[9] = tested on: psoriatic lesional skin; assay: Histopathological examination (H&E) of treated psoriatic lesional skin; type: in vivo, human; conditions: treated half of lesion, 24th hour
Description: (§3) At intervals of 4 hours, approximately 30 μl cream was applied directly onto the lesion and the cream-applied region was covered against accidental smearing and loss of the cream (FIG. 1 B).
FIG. 2A to FIG. 2W show histopathological and immunohistochemical examination findings of the tissue sections from the non-lesional skin, cyclopamine-treated lesional skin and non-treated lesional skin. Compared to the non-lesional skin (FIG. 2A), the non-treated lesional skin (FIG. 2B) is seen to display the typical histopathological signs of a psoriatic skin lesion mentioned above in the “Background of Invention”. Tissue sections from the cyclopamine-treated half of the original lesion reveal, however, dramatic improvement and regression to normalcy. These histopathological signs of regression to normalcy, exemplified in the FIG. 2C and FIG. 2D (examples from other cyclopamine-treated lesions and patients are given later) include the following: […]

[10] = tested on: psoriatic lesions; assay: Topical treatment of psoriatic lesions of patients, clinical response and EES scoring; type: in vivo, human
Description: The base cream used is made predominantly of heavy paraffin oil (10% w/w), vaseline (10% w/w), stearyl alcohol (8% w/w), polyoxylsteareth-40 (3% w/w) and water (68% w/w) but another suitably formulated base cream is also possible. […] The dosing and the application schedules followed for the lesion shown in FIG. 1A (psoriatic plaque on the dorsum of hand) are as follows: about 30 μl cream applied directly onto the lesion with the aid of a steel spatula every four hours for 24 hours. The cream-applied area is protected from accidental smearing and loss of the cream by covering with an aluminum applicator (FIG. 1 B). The dosing and the application schedules followed for the lesion shown in FIG. 1 D (psoriatic plaque at the scapular region) are as follows: about 30 μl cream applied directly onto the lesion every four hours for 24 hours. The cream-applied area is similarly covered against the smearing and loss of cream. Other treated psoriatic patients and lesions received from about 30 to 35 μl cream to each lesion at intervals of every 3 to 5 hours, as suitable and convenient. Lesions were similarly covered against the smearing and loss of cream. […] The corticosteroid used for treatment of the lesion shown in FIG. 4E was clobetasol 17-propionate in a final concentration of about 1.1 mM in base cream. […] Other corticosteroid molecules well known in the art are contemplated to be also suitable and capable of replacing the above-mentioned corticosteroid molecules at suitable concentrations (the suitable concentration ranges for corticosteroids are also known in the art).
as §3
Treatment was then discontinued and the lesion was followed-up.
Severity of psoriatic lesions can be assessed on a semi-quantitative scale by giving separate scores for the erythema, elevation and scaling of a lesion and then by summing up the scores to obtain a score called the EES score of that lesion (Bowman P. H. et al. (2002) J. Am. Acad. Dermatol. 46:907-913).

CC1=C2C[C@H]3[C@@H](CC=C4C[C@@H](O)CC[C@@]43C)[C@@H]2CC[C@]12O[C@@H]1C[C@H](C)CN[C@H]1[C@H]2C [cyclopamine]
CD44 expression in lesional epidermis [1]: rapid induction and normalization of the CD44 expression; also recorded: increase and normalization of the expression of CD44
longest duration of follow-up of healthy skin with no adverse effect found ([2]; at the time of writing of the invention): over 14 months
adverse effect of topical application on healthy / non-lesional skin [2]: no adverse effect has been detected
adverse effect of topical application on healthy / non-lesional skin ([2]; listed as Cyclopamine): did not adversely affect the non-lesional skin; also recorded: no detectable adverse effect
follow-up of skin sites of application showing healthy-looking normal skin and hair ([2]; interval since filing of PCT/TR 02/00017): more than 31 months
CD4 positive lymphocytes infiltrating the lesional skin [3]: Disappearance of the CD4 positive lymphocytes from the dermis of treated area; also recorded: largely cleared
Ber-EP4 staining of basal cells of non-lesional skin after exposure ([4]; non-lesional skin in psoriasis): remained Ber-EP4 positive
Ber-EP4 labeling of epidermal basal layer cells of lesional skin ([4]; treated lesional skin): cyclopamine-induced reversion to normalcy; also recorded: Epidermal basal layer cells are seen to display the epithelial antigen; also recorded: reverted to normalcy
EGFR expression in lesional epidermis [5]: rapidly normalized within 24 hours
cytokeratin 15 in basal cells of non-lesional epidermis after exposure ([6]; non-lesional skin): continued to be positive for the cytokeratin 15
C8/144B (cytokeratin 15) labeling of epidermal basal layer cells of lesional skin ([6]; treated lesional skin): consistent restoration of the lost cytokeratin 15 expression; also recorded: normalized and became labeled by the C8/144B antibody
Ber-EP4 staining of basal cells of normal epidermis exposed under the same conditions [7]: continued to be Ber-EP4 positive
effect on basal cell carcinoma cells (differentiation, Ber-EP4 staining) [7]: cause their differentiation and caused loss of their Ber-EP4 staining
frequency and epidermal position of Ki-67 antigen positive cells [8]: Return of the Ki-67 displaying cells to the epidermal basal layer; also recorded: return of both the frequency and the epidermal position of the Ki-67 antigen positive cells to normalcy
granular layer of epidermis [9]: Vigorous re-appearance
hyperkeratosis and parakeratosis in the stratum corneum [9]: decreased but full normalization of this oldest epidermal layer did not yet happen
inflammatory cells infiltrating the subepidermal dermis [9]: Disappearance from the cyclopamine-treated lesional skin of most of the inflammatory cells
rete ridges and epidermal hyperplasia [9]: Return of the thickened and elongated rete ridges to normal levels and marked decrease of epidermal hyperplasia
suprapapillary epidermis and papillary edema [9]: Return of the thinning of the suprapapillary epidermis to normalcy and the disappearance of papillary edema
day on which the lesion cleared / became undetectable ([10]; 18 mM cyclopamine cream every fourth hour for 24 hours, then follow-up without treatment): > 8 days
days of continued treatment until the lesion cleared ([10]; application every fourth hour until clearance): 3 to 4 days
lesions subjected to single-day treatment that failed to clear completely ([10]; human, in vivo): about 29%
effectiveness on treated psoriatic lesions of different patients and body parts ([10]; patients 29 to 57 years, lesions on extremities to trunk): highly effective on every psoriatic lesion for which it was used
appearance of lesion site on the 14th day of follow-up ([10]; plaque at left scapular region, 1 day of treatment, FIG. 1F): No lesion is visible, skin appears normal
appearance of lesion after 1 day of treatment and 7 days of follow-up ([10]; plaque at left scapular region, FIG. 1E): With the possible exception of slight erythema, lesion is no longer visible
site of the treated lesion over a month of follow-up ([10]; scapular plaque, 1 day of treatment): healthy-looking normal skin
